Test results from patent US20080319055A1, “Cooling Compounds” (GIVAUDAN SA, priority 2005, published 2008).

system: trained panel of 4 to 8 people; experiment: Cooling intensity by trained panel, isointensity method versus menthol; format: in vivo; details: aqueous solutions tasted, compared to aqueous solution of reference menthol at 2 ppm
Method: The cooling intensity of the compounds was determined by a trained panel of 4 to 8 people according to the isointensity method as described below.
Aqueous solutions of various concentrations of a chemical compound were prepared and tasted. The cooling intensity of each solution was compared to that of an aqueous solution of the reference compound at 2 ppm, namely menthol.

Point of comparison: `COC(=O)c1ccc(C(=O)NC2CC(C)CCC2C(C)C)cc1` (stereo not shown) [Ex. 5D, N-(3-p-menthyl) O-methylterephthalamate], rel. cooling intensity 2.5. Against it:
- COc1ccc(C(=O)NC(C)(C(C)C)C(C)C)cc1 [Ex. 4, N-1-methyl-1-isopropylisobutyl anisamide] — lower, 1.1
- COC(=O)c1ccc(C(=O)NC(C)(C(C)C)C(C)C)cc1 [Ex. 5C, N-(1-methyl-1-isopropyl-isobutyl) O-methylterephthalamate] — lower, 1.7
- CCC(CC)(CC)NC(=O)c1ccc(-c2ccccc2)cc1 [Ex. 5E, N-(1,1-diethylpropyl)biphenyl-4-carboxamide] — lower, 1.2
- CC(C)C(C)(NC(=O)c1ccc(-c2ccccc2)cc1)C(C)C [Ex. 5F, N-(1-methyl-1-isopropyl-isobutyl) biphenyl-4-carboxamide] — lower, 1.5
- CC(C)C(NC(=O)c1ccc2c(c1)OCO2)C(C)C [Ex. 5H, N-(1-isopropyl-isobutyl)benzo[1,3]dioxole-5-carboxamide] — lower, 0.9
- CC(C)C(C)(NC(=O)c1ccc2c(c1)OCO2)C(C)C [Ex. 5K, N-(1-methyl-1-isopropyl-isobutyl)benzo[1,3]dioxole-5-carboxamide] — lower, 0.9
- CCC(CC)(CC)NC(=O)c1ccc2c(c1)OCO2 [Ex. 5L, N-(1,1-diethylpropyl)benzo[1,3]dioxole-5-carboxamide] — lower, 0.3
- CC1(C)C2CCC1(C)C(NC(=O)c1ccccc1)C2 (stereo not shown) [Ex. 5M, N-bornyl benzamide] — lower, 0.6

system: mouth; experiment: Application in mouthwash, cooling sensation in the mouth; format: in vivo; details: 50 mL of 1% solution in alcohol per 1 liter mouthwash (also contains peppermint oil); 30 mL swished, gargled and spit out
Method: All the ingredients were mixed. 30 mL of obtained solution was put in the mouth, swished around, gargled and spit out.

`COc1ccc(C(=O)NC(C)(C(C)C)C(C)C)cc1` [Ex. 4, N-1-methyl-1-isopropylisobutyl anisamide] was tested, and the “cooling sensation in mouthwash” value was “pleasant cooling sensation was felt in every area of the mouth”.
